Tests used:
Wee1 kinase domain = target: T1, Wee1 kinase domain (Homo sapiens, UniProt P30291); assay: Wee1 Kinase Biochemical Assay (ADP-Glo); conditions: class symbols; 1 nM Wee1 enzyme, 15 uM ATP, 4 hours at 25° C.
T1 construct: Wee1 kinase domain was purchased from Carna (catalog #05-177); purchased Carna 05-177
Outline: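 Kinase domain (1 nM) incubated 4 h at 25 °C with 15 uM ATP and 2 ng/mL Poly(Lys,Tyr 4:1) in 40 mM Tris-HCl, 20 mM MgCl2, 0.1 mg/mL BSA, 2 mM DTT. ADP formation read by ADP-Glo luminescence; percent inhibition normalized to DMSO and saturating reference-inhibitor controls.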

[1] = test system: phosphorylation of Cdc2 Y15 (Wee1 substrate) in A427 cells; assay: Phosphorylated Cdc2 MSD Electrochemiluminescence Assay; assay type: cell-based; conditions: Homo sapiens, A-427, class symbols, read-out: A427 pCDC2 MSD IC50
Outline: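 A427 cells (RPMI 1640, 10% FBS) treated 20 h after plating with 3-fold serial compound dilutions, in duplicate, 37 °C, 5% CO2; total incubation 6 h. Lysate Cdc2 pY15 read by MSD electrochemiluminescence sandwich immunoassay; % remaining signal normalised to DMSO (high) and reference Wee1 inhibitor (low) controls.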

T1 sequence (P30291 299-569 limits assumed): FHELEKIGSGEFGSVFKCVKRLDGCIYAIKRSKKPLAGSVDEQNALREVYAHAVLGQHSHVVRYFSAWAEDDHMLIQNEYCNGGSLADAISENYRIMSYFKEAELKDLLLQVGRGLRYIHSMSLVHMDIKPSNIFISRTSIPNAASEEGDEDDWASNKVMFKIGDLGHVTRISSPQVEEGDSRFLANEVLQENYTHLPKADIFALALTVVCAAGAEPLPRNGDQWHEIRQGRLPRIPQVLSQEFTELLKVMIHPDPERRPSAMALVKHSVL

Row | SMILES | IC50 (Wee1 kinase domain) [nM] | IC50 [1] [nM]
1 | CN1C[C@H]2C[C@@H]1CN2c1ccc(Nc2ncc3c(n2)N(c2cccc(N4CCCC4=O)n2)[C@@H]2CC(C)(C)OC[C@]32C)cc1F [Example 638, 1-(6-((4bR,8aR)-2-((3-fluoro-4-((1R,4R)-5-methyl-2,5-diazabicyclo[2.2.1]heptan-2-yl)phenyl)amino)-4b,7,7-trimethyl-4b,7,8,8a-tetrahydropyrano[3′,4′:4,5]pyrrolo[2,3-d]pyrimidin-9(5H)-yl)pyridin-2-yl)pyrrolidin-2-one] | < 10 | 100 to 1000
2 | CN1C[C@@H]2C[C@H]1CN2c1ccc(Nc2ncc3c(n2)N(c2cccc(N4CCCC4=O)n2)[C@@H]2CC(C)(C)OC[C@]32C)cc1F [Example 640, 1-(6-((4bR,8aR)-2-((3-fluoro-4-((1S,4S)-5-methyl-2,5-diazabicyclo[2.2.1]heptan-2-yl)phenyl)amino)-4b,7,7-trimethyl-4b,7,8,8a-tetrahydropyrano[3′,4′:4,5]pyrrolo[2,3-d]pyrimidin-9(5H)-yl)pyridin-2-yl)pyrrolidin-2-one] | < 10 | 100 to 1000
3 | CN1CC[C@@H](c2ccc(Nc3ncc4c(n3)N(c3cccc(N5CCCC5=O)n3)[C@@H]3CC(C)(C)OC[C@]43C)cc2)C1 [Example 642, 1-(6-((4bR,8aR)-4b,7,7-trimethyl-2-((4-((S)-1-methylpyrrolidin-3-yl)phenyl)amino)-46,7,8,8a-tetrahydropyrano[3′,4′:4,5]pyrrolo[2,3-d]pyrimidin-9(5H)-yl)pyridin-2-yl)pyrrolidin-2-one] | < 10 | 100 to 1000
4 | CN1C[C@@H]2C[C@H]1CN2c1ccc(Nc2ncc3c(n2)N(c2cccc(C4(O)CC4)n2)[C@@H]2CC(C)(C)OC[C@]32C)cc1 [Example 644, 1-(6-((4bR,8aR)-4b,7,7-trimethyl-2-((4-((1S,4S)-5-methyl-2,5-diazabicyclo[2.2.1]heptan-2-yl)phenyl)amino)-4b,7,8,8a-tetrahydropyrano[3′,4′:4,5]pyrrolo[2,3-d]pyrimidin-9(5H)-yl)pyridin-2-yl)cyclopropan-1-ol] | < 10 | 100 to 1000
5 | C[C@H]1CCC(=O)N1c1cccc(N2c3nc(Nc4ccc(N5C[C@@H]6C[C@H]5CN6C)cc4)ncc3[C@@]3(C)COC(C)(C)C[C@@H]23)n1 [Example 651, (S)-5-methyl-1-(6-((4bR,8aR)-4b,7,7-trimethyl-2-((4-((1S,4S)-5-methyl-2,5-diazabicyclo[2.2.1]heptan-2-yl)phenyl)amino)-4b,7,8,8a-tetrahydropyrano[3′,4′:4,5]pyrrolo[2,3-d]pyrimidin-9(5H)-yl)pyridin-2-yl)pyrrolidin-2-one] | < 10 | 100 to 1000
6 | Cc1cc(Nc2ncc3c(n2)N(c2cccc(N4CCCC4=O)n2)[C@@H]2CC(C)(C)OC[C@]32C)ccc1N1C[C@@H]2C[C@H]1CN2C [Example 652, 1-(6-((4bR,8aR)-4b,7,7-trimethyl-2-((3-methyl-4-((1S,4S)-5-methyl-2,5-diazabicyclo[2.2.1]heptan-2-yl)phenyl)amino)-4b,7,8,8a-tetrahydropyrano[3′,4′:4,5]pyrrolo[2,3-d]pyrimidin-9(5H)-yl)pyridin-2-yl)pyrrolidin-2-one] | < 10 | 100 to 1000

Other lines, results leading:

Row | IC50 (Wee1 kinase domain) [nM] | IC50 [1] [nM] | SMILES
7 | < 10 | 100 to 1000 | CC1(C)C[C@H]2N(c3cccc(N4CCOC4=O)n3)c3nc(Nc4ccc(O[C@@H]5CCNC5)cc4)ncc3[C@@]2(C)CO1 [Example 622, 3-(6-((4bR,8aR)-4b,7,7-trimethyl-2-((4-(((R)-pyrrolidin-3-yl)oxy)phenyl)amino)-4b,7,8,8a-tetrahydropyrano[3′,4′:4,5]pyrrolo[2,3-d]pyrimidin-9(5H)-yl)pyridin-2-yl)oxazolidin-2-one]
8 | < 10 | 100 to 1000 | CN1CC[C@@H](Oc2ccc(Nc3ncc4c(n3)N(c3cccc(N5CCOC5=O)n3)[C@@H]3CC(C)(C)OC[C@]43C)cc2)C1 [Example 624, 3-(6-((4bR,8aR)-4b,7,7-trimethyl-2-((4-(((R)-1-methylpyrrolidin-3-yl)oxy)phenyl)amino)-4b,7,8,8a-tetrahydropyrano[3′,4′:4,5]pyrrolo[2,3-d]pyrimidin-9(5H)-yl)pyridin-2-yl)oxazolidin-2-one]
9 | < 10 | 100 to 1000 | CN1CC[C@@H](Oc2ccc(Nc3ncc4c(n3)N(c3cccc(N5CCCC5=O)n3)[C@@H]3CC(C)(C)OC[C@]43C)cc2)C1 [Example 626, 1-(6-((4bR,8aR)-4b,7,7-trimethyl-2-((4-(((R)-1-methylpyrrolidin-3-yl)oxy)phenyl)amino)-4b,7,8,8a-tetrahydropyrano[3′,4′:4,5]pyrrolo[2,3-d]pyrimidin-9(5H)-yl)pyridin-2-yl)pyrrolidin-2-one]
10 | < 10 | 100 to 1000 | CN1C[C@@H]2C[C@H]1CN2c1ccc(Nc2ncc3c(n2)N(c2cccc(N4CCCC4=O)n2)[C@@H]2CC(C)(C)OC[C@]32C)cc1 [Example 629, 1-(6-((4bR,8aR)-4b,7,7-trimethyl-2-((4-((1S,4S)-5-methyl-2,5-diazabicyclo[2.2.1]heptan-2-yl)phenyl)amino)-4b,7,8,8a-tetrahydropyrano[3′,4′:4,5]pyrrolo[2,3-d]pyrimidin-9(5H)-yl)pyridin-2-yl)pyrrolidin-2-one]
11 | < 10 | 100 to 1000 | CN1C[C@H]2C[C@@H]1CN2c1ccc(Nc2ncc3c(n2)N(c2cccc(N4CCCC4=O)n2)[C@@H]2CC(C)(C)OC[C@]32C)cc1 [Example 631, 1-(6-((4bR,8aR)-4b,7,7-trimethyl-2-((4-((1R,4R)-5-methyl-2,5-diazabicyclo[2.2.1]heptan-2-yl)phenyl)amino)-4b,7,8,8a-tetrahydropyrano[3′,4′:4,5]pyrrolo[2,3-d]pyrimidin-9(5H)-yl)pyridin-2-yl)pyrrolidin-2-one]
12 | < 10 | 100 to 1000 | CC1(C)C[C@H]2N(c3cccc(N4CCCC4=O)n3)c3nc(Nc4ccc([C@@H]5CCNC5)cc4)ncc3[C@@]2(C)CO1 [Example 632, 1-(6-((4bR,8aR)-4b,7,7-trimethyl-2-((4-((S)-pyrrolidin-3-yl)phenyl)amino)-4b,7,8,8a-tetrahydropyrano[3′,4′:4,5]pyrrolo[2,3-d]pyrimidin-9(5H)-yl)pyridin-2-yl)pyrrolidin-2-one]
13 | < 10 | 100 to 1000 | CN1CC[C@H](c2ccc(Nc3ncc4c(n3)N(c3cccc(N5CCCC5=O)n3)[C@@H]3CC(C)(C)OC[C@]43C)cc2)C1 [Example 634, 1-(6-((4bR,8aR)-4b,7,7-trimethyl-2-((4-((R)-1-methylpyrrolidin-3-yl)phenyl)amino)-4b,7,8,8a-tetrahydropyrano[3′,4′:4,5]pyrrolo[2,3-d]pyrimidin-9(5H)-yl)pyridin-2-yl)pyrrolidin-2-one]
14 | < 10 | 100 to 1000 | CC1(C)C[C@H]2N(c3cccc(N4CCCC4=O)n3)c3nc(Nc4ccc([C@H]5CCNC5)cc4)ncc3[C@@]2(C)CO1 [Example 636, 1-(6-((4bR,8aR)-4b,7,7-trimethyl-2-((4-((R)-pyrrolidin-3-yl)phenyl)amino)-4b,7,8,8a-tetrahydropyrano[3′,4′:4,5]pyrrolo[2,3-d]pyrimidin-9(5H)-yl)pyridin-2-yl)pyrrolidin-2-one]
